Assay: physchem
Settings: pH 7

Row | pKa | SMILES
1 | 8.13 | COc1cc2nc(N3CCCN(C)CC3)nc(NC3CCN(Cc4ccccc4)CC3)c2cc1OC
2 | 7.4 | c1ccc(CN2CCC(Nc3nc(N4CCCCC4)nc4ccccc34)CC2)cc1
3 | 9.84 | COc1cc2nc(N3CCN(C)CC3)cc(NC3CCN(Cc4ccccc4)CC3)c2cc1OC
4 | 3.28 | CN1CCCN(c2nc(NC3CCN(Cc4ccccc4)CC3)c3ccsc3n2)CC1
5 | 7.45 | c1ccc(CN2CCC(Nc3nc(N4CCCCC4)nc4cc5c(cc34)OCO5)CC2)cc1
6 | 5.68 | CN1CCCN(c2nc(NC3CCN(Cc4ccccc4)CC3)c3sccc3n2)CC1
7 | 5.53 | CN1CCN(c2nc(NC3CCN(Cc4ccccc4)CC3)c3ccccc3n2)CC1
8 | 5.6 | COc1cc2nc(N3CCN(C)CC3)nc(NC3CCN(Cc4ccccc4)CC3)c2cc1OC
9 | 5.31 | c1ccc(CN2CCC(Nc3nc(N4CCCCC4)nc4ccoc34)CC2)cc1
10 | 10.6 | COc1cc2nc(N3CCCN(C)CC3)cc(NC3CCN(Cc4ccccc4)CC3)c2cc1OC
11 | 7.47 | COc1cc2nc(N3CCCCC3)nc(NC3CCN(Cc4ccccc4)CC3)c2cc1OC
12 | 5.58 | CN1CCN(c2nc(NC3CCN(Cc4ccccc4)CC3)c3cc4c(cc3n2)OCO4)CC1
13 | 3.73 | c1ccc(CN2CCC(Nc3nc(N4CCCCC4)nc4nc[nH]c34)CC2)cc1
14 | 6.62 | CN1CCCN(c2nc3c(c(NC4CCN(Cc5ccccc5)CC4)n2)CCC3)CC1

Continued, compound first:

Row | SMILES | pKa
15 | CN1CCN(c2nc(NC3CCN(Cc4ccccc4)CC3)c3occc3n2)CC1 | 4.66
16 | c1ccc(CN2CCC(Nc3nc(N4CCCCC4)nc4sccc34)CC2)cc1 | 3.86
17 | c1ccc(CN2CCC(Nc3nc(N4CCN(c5ccccn5)CC4)nc4cc5c(cc34)OCO5)CC2)cc1 | 8.08
18 | c1ccc(CN2CCC(Nc3nc(N4CCCCC4)nc4ccsc34)CC2)cc1 | 6.42
19 | CN1CCCN(c2nc(NC3CCN(Cc4ccccc4)CC3)c3[nH]cnc3n2)CC1 | 3.15
20 | c1ccc(CN2CCC(Nc3nc(N4CCN(c5ccccn5)CC4)nc4ccsc34)CC2)cc1 | 6.88
21 | c1ccc(CN2CCC(Nc3nc(N4CCN(c5ccccn5)CC4)nc4ccoc34)CC2)cc1 | 5.77
22 | c1ccc(CN2CCC(Nc3nc(N4CCN(c5ccccn5)CC4)nc4ccccc34)CC2)cc1 | 8.03
23 | CN1CCN(c2nc(NC3CCN(Cc4ccccc4)CC3)c3ccsc3n2)CC1 | 3.35
24 | CN1CCCN(c2nc(NC3CCN(Cc4ccccc4)CC3)c3ccccc3n2)CC1 | 8.06
25 | CN1CCN(c2nc(NC3CCN(Cc4ccccc4)CC3)c3sccc3n2)CC1 | 5.77
26 | CN1CCCN(c2nc(NC3CCN(Cc4ccccc4)CC3)c3occc3n2)CC1 | 4.57
27 | COc1cc2nc(N3CCN(c4ccccn4)CC3)nc(NC3CCN(Cc4ccccc4)CC3)c2cc1OC | 8.1

Reference: ChEMBL document CHEMBL3621101 (Medchemcomm, 2014)
